pKd: −log10 of the molar value.
Key:
Format in all cases: binding
H3K9me3 peptide = biological target: T1, H3K9me3 peptide (Homo sapiens, UniProt P68431); assay: fluorescence indicator displacement assay, solution-phase affinity for H3K9me3 peptide; conditions: 10 mM phosphate buffer at pH 7.4, average of triplicate determinations, read-out: Solution-phase equilibrium dissociation constant (Kd), H3K9me3
T1 construct: H3 1-12=H2N-ARTKQTARKSTGY-COOH; made in house; host or cells: chemical solid-phase peptide synthesis
Experimental: (§1) In this example, the activity of various compound embodiments described herein were evaluated. A calixarene parent compound and compounds 502 and 404 were evaluated. Compound 502 was used has an upper-rim aryl group attached via sulfonamide linkage, and also includes a distal carboxy group for conjugation to solid-phase supports. The solution-phase affinities of a calixarene parent compound, and compounds 502 and 404 were determined for various methyllysine and methylarginine containing peptides by fluorescence indicator displacement assay (Table 1).
(§2) All values were determined in 10 mM phosphate buffer at pH 7.4 and are averages of triplicate determinations by an indicator displacement assay.

H3K4ac peptide = biological target: T2, H3K4ac peptide (Homo sapiens, UniProt P68431); assay: fluorescence indicator displacement assay, solution-phase affinity for H3K4ac peptide; conditions: for pKd: 10 mM phosphate buffer at pH 7.4, average of triplicate determinations, indicator displacement assay, read-out: Solution-phase equilibrium dissociation constant (Kd), H3K4ac; for binding to Kac containing peptides (in words): solution phase, relative to methylated peptides
T2 construct: H3 1-7=H2N-ARTKQTAY-COOH; made in house; host or cells: chemical solid-phase peptide synthesis
Experimental: as §1, §2

H3K4me3 peptide = biological target: T3, H3K4me3 peptide; assay: fluorescence indicator displacement assay, solution-phase affinity for H3K4me3 peptide
T3 construct: other: solution phase, indicator displacement assay; fused on or other part: C-terminal Tyr added to read concentration by A280; trimethyl-lysine (a PTM)
Experimental: as §1, §2

H3R2me2a peptide = biological target: T4, H3R2me2a peptide (Homo sapiens, UniProt P68431); assay: fluorescence indicator displacement assay, solution-phase affinity for H3R2me2a peptide; conditions: for pKd: 10 mM phosphate buffer at pH 7.4, average of triplicate determinations, read-out: Solution-phase equilibrium dissociation constant (Kd), H3R2me2a
T4 construct: H3 1-7=H2N-ARTKQTAY-COOH; made in house; host or cells: chemical solid-phase peptide synthesis
Experimental: as §1, §2

H3K4me peptide = biological target: T5, H3K4me peptide (Homo sapiens, UniProt P68431); assay: fluorescence indicator displacement assay, solution-phase affinity for H3K4me peptide; conditions: 10 mM phosphate buffer at pH 7.4, average of triplicate determinations, read-out: Solution-phase equilibrium dissociation constant (Kd), H3K4me
T5 construct: H3 1-7=H2N-ARTKQTAY-COOH; made in house; host or cells: chemical solid-phase peptide synthesis
Experimental: as §1, §2

H3R2me2s peptide = biological target: T6, H3R2me2s peptide (Homo sapiens, UniProt P68431); assay: fluorescence indicator displacement assay, solution-phase affinity for H3R2me2s peptide; conditions: 10 mM phosphate buffer at pH 7.4, average of triplicate determinations, read-out: Solution-phase equilibrium dissociation constant (Kd), H3R2me2s
T6 construct: H3 1-7=H2N-ARTKQTAY-COOH; made in house; host or cells: chemical solid-phase peptide synthesis
Experimental: as §1, §2

H3K4me2 peptide = biological target: T7, H3K4me2 peptide (Homo sapiens, UniProt P68431); assay: fluorescence indicator displacement assay, solution-phase affinity for H3K4me2 peptide; conditions: for pKd: 10 mM phosphate buffer at pH 7.4, average of triplicate determinations, read-out: Solution-phase equilibrium dissociation constant (Kd), H3K4me2; for affinity for Kme2-containing peptides (in words): solution phase
T7 construct: H3 1-7=H2N-ARTKQTAY-COOH; made in house; host or cells: chemical solid-phase peptide synthesis
Experimental: as §1, §2

[1] = biological target: T8, H3K4 peptide (unmethylated) (Homo sapiens, UniProt P68431); assay: fluorescence indicator displacement assay, solution-phase affinity for H3K4 peptide; conditions: for pKd: 10 mM phosphate buffer at pH 7.4, average of triplicate determinations, indicator displacement assay, read-out: Solution-phase equilibrium dissociation constant (Kd), H3K4; for binding to unmethylated controls (in words): solution phase, relative to methylated peptides
T8 construct: H3 1-7=H2N-ARTKQTAY-COOH; made in house; host or cells: chemical solid-phase peptide synthesis
Experimental: as §1, §2

Row | pKd (H3K9me3 peptide) | pKd (H3K4ac peptide) | binding to Kac containing peptides (in words) (H3K4ac peptide) | affinity for Kme3-containing peptides (in words) (H3K4me3 peptide) | pKd (H3R2me2a peptide) | pKd (H3K4me peptide) | pKd (H3R2me2s peptide) | pKd (H3K4me2 peptide) | affinity for Kme2-containing peptides (in words) (H3K4me2 peptide) | pKd [1] | binding to unmethylated controls (in words) [1] | affinity for aDMA-containing peptides (in words) (H3R2me2a peptide; solution phase) | Structure (SMILES)
1 | 6.00 | < 3.00 | weaker binding | sub-micromolar | 6.00 | 5.64 | 5.18 | 7.00 | sub-micromolar | 4.07 | weaker binding | – | O=C(O)Cc1ccc(-c2cc3c(O)c(c2)Cc2cc(S(=O)(=O)O)cc(c2O)Cc2cc(S(=O)(=O)O)cc(c2O)Cc2cc(S(=O)(=O)O)cc(c2O)C3)cc1 [Compound 404, 5-(4-carboxymethylphenyl)-25, 26, 27, 28-tetrahydroxy-11-17-23-trisulfonatocalix[4]arene]
2 | 6.30 | 5.12 | weaker binding | sub-micromolar | 6.22 | 5.89 | 5.59 | 6.40 | sub-micromolar | 5.42 | weaker binding | sub-micromolar | O=C(O)c1ccc(S(=O)(=O)Nc2cc3c(O)c(c2)Cc2cc(S(=O)(=O)O)cc(c2O)Cc2cc(S(=O)(=O)O)cc(c2O)Cc2cc(S(=O)(=O)O)cc(c2O)C3)cc1 [Compound 502, 5-(4-carboxyphenyl)sulfonamido-25, 26, 27, 28-tetrahydroxy-11-17-23-trisulfonatocalix[4]arene]

From patent US10338037B2, “Compounds and conjugates for identifying and separating post-translationally modified analytes” (UVic Industry Partnerships Inc., priority 2015, dated 2019)
